Experimental data: US9028856B2, “Synergistic pesticide compositions” (priority 2008, dated 2015)

Key:
[1] = tested on: Argentine ant, Linepithema humile; experiment: Knockdown/mortality of ant workers under continuous exposure on treated glazed tile; conditions: Table 25, imidacloprid/dibutyl sebacate (DBS) in acetone, glazed tile
Experimental: (§1) Solutions of imidacloprid at 0.5% AI were prepared with and without methyl oleate @0.1, 1.0 and 5.0% in acetone. Treatments were applied using a micropipette to dispense 1 ml of test solution evenly on a 6″×6″ glazed tile. Actual coverage was about 5″×5″ (or 161 cm^2) for easy handling. Treatments were allowed to dry overnight. Ten Argentine ant workers were placed within a fluon or talc-coated PVC ring (φ7.6 cm×H 5.1 cm) under continuous exposure. A small vial filled with a cotton ball soaked in water was added as a drinking source after 3 hours. Treatments were replicated a minimum of three times. Evaluations for ant knockdown/mortality were made at various intervals and at 24 hours after exposure.
as §1, with “MATERIALS AND METHODS: Solutions” for “Solutions”, “linoleate” for “oleate”
as §1, with “MATERIALS AND METHODS: Solutions of” for “Solutions of”, “without methyl palmitate @0.1, 1.0” for “without methyl oleate @0.1, 1.0”, “after exposure. […]” for “after exposure.”

[2] = tested on: bait averse/resistant German cockroach (T-164 strain); experiment: Knockdown/mortality of male cockroaches under continuous exposure on treated glazed tile; format: in vivo, Blattella germanica; conditions: 45 min; Table 24, imidacloprid/dibutyl sebacate (DBS) in acetone, glazed tile, T-164 strain
[3] = tested on: Aedes aegypti mosquito; experiment: USDA Petri Dish Method, 3 min exposure to treated glazed tile; format: in vivo; conditions: Aedes aegypti
Experimental: (§2) Treatments were allowed to dry overnight. USDA Petri Dish Method was used as initial screening protocol. Twenty, 4-6 day old female Aedes aegypti mosquitoes were exposed to each treatment for 3 minutes and then moved to a clean untreated white paper index card. Treatments were replicated a minimum of three times. Mosquito knockdown was evaluated at various intervals through 7 hours after exposure. A small cotton ball soaked in sucrose solution was added on the screen top of the petri-dish as a drinking source. Mortality was evaluated at 24 hours after exposure.
MATERIALS AND METHODS: Solutions of resmethrin at 1 and 0.5% AI were prepared with and without adjuvant in acetone. […] USDA Petri Dish Method was used as initial screening protocol. Twenty, 4-6 day old female Aedes aegypti mosquitoes were exposed to each treatment for 3 minutes and then moved to a clean untreated white paper index card. Treatments were replicated a minimum of three times. Mosquito knockdown was evaluated at 3 minute intervals for the first 15 minutes and then at 5 minute intervals for the remainder of an hour. A small cotton ball soaked in sucrose solution was added on the screen top of the petri-dish as a drinking source. Mortality was evaluated at 24 hours after exposure.
as §2, with “6” for “7”
as §2, with “5 minute” for “various”, “for the first hour and then at 2, 4 and 6 hours.” for “through 7 hours after exposure.”
Treatments were allowed to dry overnight. USDA Petri Dish Method was used as initial screening protocol. Twenty, 4-6 day old female Aedes aegypti mosquitoes were exposed to each treatment for 3 minutes and then moved to a clean untreated white paper index card. Treatments were replicated a minimum of three times. Mosquito knockdown was evaluated at 3-5 minute intervals for the first hour. A small cotton ball soaked in sucrose solution was then added on the screen top of the petri-dish as a drinking source. Mortality was evaluated at 24 hours after exposure.
as §2, with “intervals through 2 hours after” for “intervals through 7 hours after”, “solution was then added on” for “solution was added on”
Treatments were allowed to dry overnight. USDA Petri Dish Method was used as initial screening protocol. Twenty, 4-6 day old female Aedes aegypti mosquitoes were exposed to each treatment for 3 minutes and then moved to a clean untreated white paper index card. Treatments were replicated a minimum of three times. Mosquito knockdown was evaluated at various hourly intervals. […]

[4] = tested on: Aedes aegypti mosquito; experiment: USDA Petri Dish Method, 3 min exposure to dipped fiberglass window screen; format: in vivo; conditions: dipped screen, 3 min exposure
Experimental: MATERIALS AND METHODS: Aqueous solutions of 1% deltamethrin with and without an adjuvant composition, which is sold under the tradename Suspend® SC. […] Pre-cut fiberglass screen (5″×5″, or 161.3 cm^2) were dipped in each treatment solution and excessive solution was allowed to drain completely (see FIG. 23 a). Weight of the solution coated on the screen was then determined. The treated screen was then allowed to air-dry overnight. USDA Petri Dish Method was used as initial screening protocol (see FIG. 23 b). Twenty, 4-6 day old female Aedes aegypti were exposed to treated window screen for 3 minutes and then moved onto a clean untreated white paper index card. Treatments were replicated a minimum of three times. Mosquito knockdown was evaluated at 3 minute intervals for the first 15 minutes and then at 5 minute intervals for the remainder of an hour. A small cotton ball with sucrose solution was added on the screen top of the Petri dish as a drinking source. Mortality was evaluated at 24 hours after exposure.
MATERIALS AND METHODS: Several rates of permethrin without adjuvant were prepared using product sold under the tradename Permanone® 40 to determine an effective rate against Aedes aegypti mosquitoes. After determining an effective rate range, aqueous solutions of permethrin at 1.25, 1.0 and 0.05% AI were prepared with and without adjuvant. […] Pre-cut fiberglass screens (5″×5″ or 161.3 cm^2) were dipped in each treatment solution allowing excessive solution to drain completely. Weight of the solution coated on the screen was then determined. The treated screen was then allowed to air-dry overnight. USDA Petri Dish Method was used as initial screening protocol (see photo, right). Twenty, 4-6 day old female Aedes aegypti were exposed to treated window screen for 3 minutes and then moved to a clean untreated white paper index card. Treatments were replicated a minimum of three times. Mosquito knockdown was evaluated at 3 minute intervals for the first 15 minutes and then at 5 minute intervals for the remainder of an hour. A small cotton ball with sucrose solution was added on the screen top of the petri-dish as a drinking source. Mortality was evaluated at 24 hours after exposure.

[5] = Table 56, glazed tile, 3 min exposure
[6] = Table 56, glazed tile, 3 min exposure, adjuvant = Compound A 1% + Compound B 0.5%
[7] = Table 39, permethrin without adjuvant (Permanone 40)
[8] = Table 40, aqueous permethrin/adjuvant

Compound: CCCCOC(=O)CCCCCCCCC(=O)OCCCC [DBS (1%)]
- Average % Knockdown & Mortality after 2 hr ([1]; 2 hr): 0%
- Average % Knockdown & Mortality after 4 hr ([1]; 4 hr): 77%
- Average % Knockdown & Mortality after 45 min [2]: 0%

Compound: CC[S+]([O-])c1c(C#N)nn(-c2c(Cl)cc(C(F)(F)F)cc2Cl)c1N (stereo not drawn) [Ethiprole (.01%)]
- Average % Knockdown & Mortality after 4 hr [3, 5]: 2%
- Average % Knockdown & Mortality after 6 hr [3, 5]: 12%
- Average % Knockdown & Mortality after 24 hr [3, 5]: 17%
- Average % Knockdown & Mortality after 2 hr [3, 6]: 0%

Compound: CC1(C)C(C=C(Cl)Cl)C1C(=O)OCc1cccc(Oc2ccccc2)c1 (stereo not drawn) [Permethrin (1.5%)]
- Average % Knockdown & Mortality after 3 min [4, 7]: 0%
- Average % Knockdown & Mortality after 9 min [4, 7]: 0%
- Average % Knockdown & Mortality after 15 min [4, 7]: 2%
- Average % Knockdown & Mortality after 30 min [4, 7]: 2%
- Average % Knockdown & Mortality after 60 min [4, 7]: 3%
- Average % Knockdown & Mortality after 24 hr [4, 7]: 16%

Compound: CC1(C)C(C=C(Cl)Cl)C1C(=O)OCc1cccc(Oc2ccccc2)c1 (stereo not drawn) [Permethrin (5%)]
- Average % Knockdown & Mortality after 3 min [4, 7]: 75%
- Average % Knockdown & Mortality after 9 min [4, 7]: 100%
- Average % Knockdown & Mortality after 15 min [4, 7]: 100%
- Average % Knockdown & Mortality after 30 min [4, 7]: 100%
- Average % Knockdown & Mortality after 60 min [4, 7]: 100%
- Average % Knockdown & Mortality after 24 hr [4, 7]: 100%

Compound: CN/C(=N\[N+](=O)[O-])NCc1cnc(Cl)s1 [Clothianidin (1%)]
- Average % Knockdown & Mortality after 1 hr ([3]; Table 78, clothianidin study, glazed tile, 3 min exposure, adjuvant = Compound A 1% + Compound B 0.5%, 1 hr): 0%
- Average % Knockdown & Mortality after 2 hr ([3]; Table 78, clothianidin study): 0%
- Average % Knockdown & Mortality after 4 hr ([3]; Table 78, clothianidin study): 0%
- Average % Knockdown & Mortality after 24 hr ([3]; Table 78, clothianidin study): 0%

Compound: CC[S+]([O-])c1c(C#N)nn(-c2c(Cl)cc(C(F)(F)F)cc2Cl)c1N (stereo not drawn) [Ethiprole (.1%)]
- Average % Knockdown & Mortality after 4 hr [3, 5]: 3%
- Average % Knockdown & Mortality after 6 hr [3, 5]: 15%
- Average % Knockdown & Mortality after 24 hr [3, 5]: 25%
- Average % Knockdown & Mortality after 2 hr [3, 6]: 3%

Compound: CC1(C)C(C=C(Cl)Cl)C1C(=O)OCc1cccc(Oc2ccccc2)c1 (stereo not drawn) [Permethrin (1.25%)]
- Average % Knockdown & Mortality after 3 min [4, 7]: 46%
- Average % Knockdown & Mortality after 3 min [4, 8]: 0%
- Average % Knockdown & Mortality after 9 min [4, 7]: 71%
- Average % Knockdown & Mortality after 9 min [4, 8]: 0%
- Average % Knockdown & Mortality after 15 min [4, 7]: 71%
- Average % Knockdown & Mortality after 15 min [4, 8]: 2%
- Average % Knockdown & Mortality after 30 min [4, 7]: 72%
- Average % Knockdown & Mortality after 30 min [4, 8]: 2%
- Average % Knockdown & Mortality after 60 min [4, 7]: 79%
- Average % Knockdown & Mortality after 60 min [4, 8]: 3%
- Average % Knockdown & Mortality after 24 hr [4, 7]: 82%
- Average % Knockdown & Mortality after 24 hr [4, 8]: 7%

Compound: CC1(C)C(C=C(Cl)Cl)C1C(=O)OCc1cccc(Oc2ccccc2)c1 (stereo not drawn) [Permethrin (0.1%)]
- Average % Knockdown & Mortality after 3 min [4, 7]: 0%
- Average % Knockdown & Mortality after 9 min [4, 7]: 0%
- Average % Knockdown & Mortality after 15 min [4, 7]: 0%
- Average % Knockdown & Mortality after 30 min [4, 7]: 0%
- Average % Knockdown & Mortality after 60 min [4, 7]: 0%
- Average % Knockdown & Mortality after 24 hr [4, 7]: 5%

Compound: CC1(C)C(C=C(Cl)Cl)C1C(=O)OCc1cccc(Oc2ccccc2)c1 (stereo not drawn) [Permethrin (1.75%)]
- Average % Knockdown & Mortality after 3 min [4, 7]: 40%
- Average % Knockdown & Mortality after 9 min [4, 7]: 95%
- Average % Knockdown & Mortality after 15 min [4, 7]: 100%
- Average % Knockdown & Mortality after 30 min [4, 7]: 100%
- Average % Knockdown & Mortality after 60 min [4, 7]: 100%
- Average % Knockdown & Mortality after 24 hr [4, 7]: 100%

Compound: CC1(C)C(C=C(Cl)Cl)C1C(=O)OCc1cccc(Oc2ccccc2)c1 (stereo not drawn) [Permethrin (2.5%)]
- Average % Knockdown & Mortality after 3 min [4, 7]: 56%
- Average % Knockdown & Mortality after 9 min [4, 7]: 100%
- Average % Knockdown & Mortality after 15 min [4, 7]: 100%
- Average % Knockdown & Mortality after 30 min [4, 7]: 100%
- Average % Knockdown & Mortality after 60 min [4, 7]: 100%
- Average % Knockdown & Mortality after 24 hr [4, 7]: 100%

Compound: CC1(C)C(C=C(Cl)Cl)C1C(=O)OCc1cccc(Oc2ccccc2)c1 (stereo not drawn) [Permethrin (1.0%)]
- Average % Knockdown & Mortality after 3 min [4, 7]: 0%
- Average % Knockdown & Mortality after 3 min [4, 8]: 2%
- Average % Knockdown & Mortality after 9 min [4, 7]: 2%
- Average % Knockdown & Mortality after 9 min [4, 8]: 2%
- Average % Knockdown & Mortality after 15 min [4, 7]: 2%
- Average % Knockdown & Mortality after 15 min [4, 8]: 2%
- Average % Knockdown & Mortality after 30 min [4, 7]: 5%
- Average % Knockdown & Mortality after 30 min [4, 8]: 4%
- Average % Knockdown & Mortality after 60 min [4, 7]: 18%
- Average % Knockdown & Mortality after 60 min [4, 8]: 13%
- Average % Knockdown & Mortality after 24 hr [4, 7]: 34%
- Average % Knockdown & Mortality after 24 hr [4, 8]: 28%
